The species named for data set [1] is Rattus norvegicus. Description: Adrenergic activity in albino Sprague-Dawley rat vas deferens assessed as contractile response at 0.3 mM measured after 1 to 5 mins. Type of data set: functional, tissue-based.
The species named for data set [2] is Rattus norvegicus. Nature of the data set: Adrenergic activity in reserpine-pretreated albino Sprague-Dawley rat vas deferens assessed as contractile response. Type of data set: functional, tissue-based.
The next data set has as its system Vas deferens. Description: Adrenergic activity in reserpine-pretreated albino Sprague-Dawley rat vas deferens assessed as potentiation of norepinephrine-induced contractile response at 30 uM. Type of data set: functional, tissue-based.
Substrate in data set [3]: NCC(O)/C1=C/CC/C=C\CC1
Nature of the data set: (§1) Activity at PNMT in bovine adrenal medulla using DL-beta-phenylethanolamine and SAM-14CH3 as substrate by Michaelis-Menten analysis. The settings on record: Bos taurus.

Substrate in data set [4]: NCC(O)C1=C/C=C\C=C/C=C\1
The data set is described as §1. Particulars: Bos taurus.

Substrate in data set [5]: NCC(O)C1=C/CCCC/C=C\1
The description is as §1. The settings on record: Bos taurus.

Substrate in data set [6]: NCC(O)C1CC=CCC1
The data set is described as §1. The settings on record: Bos taurus.

Substrate in data set [7]: NCC(O)C1CCCCC1
Described as §1. Particulars: Bos taurus.

Substrate in data set [8]: NCC(O)C1CCCCCCC1
The data set is described as §1. Particulars: Bos taurus.

Substrate in data set [9]: NCC(O)c1ccccc1
Described as §1. The settings on record: Bos taurus.

Substrate in data set [10]: NCC(O)/C1=C/CC/C=C\CC1
Nature of the data set: (§2) Activity at PNMT in bovine adrenal medulla using DL-beta-phenylethanolamine and SAM-14CH3 as substrate measured per mg of protein by Michaelis-Menten analysis. The settings on record: Bos taurus.

Substrate in data set [11]: NCC(O)C1=C/C=C\C=C/C=C\1
The description is as §2. The settings on record: Bos taurus.

Substrate in data set [12]: NCC(O)C1=C/CCCC/C=C\1
Described as §2. The settings on record: Bos taurus.

Substrate in data set [13]: NCC(O)C1CC=CCC1
The data set is described as §2. The settings on record: Bos taurus.

Substrate in data set [14]: NCC(O)C1CCCCC1
The description is as §2. Particulars: Bos taurus.

Substrate in data set [15]: NCC(O)C1CCCCCCC1
Described as §2. Particulars: Bos taurus.

Substrate in data set [16]: NCC(O)c1ccccc1
The data set is described as §2. The settings on record: Bos taurus.

Activity calls are given as the source filed them. No cut-off for these calls is given here.

Turning to `NCC(O)C1=C/C=C\C=C/C=C\1` (stereo not given), the outcome in the data set filed under Rattus norvegicus [1] and in the data set on Vas deferens was Active. Also, in the data set listed under Rattus norvegicus [2], the outcome was inactive.
For `NCC(O)C1/C=C\CCCCC1` (stereo not given), the outcome in the data set filed under Rattus norvegicus [1] and in the data set on Vas deferens was Active. In addition, in the data set listed under Rattus norvegicus [2], the result was inactive.
Take `NCC(O)/C1=C/CC/C=C\CC1` (stereo not given): the outcome in the data set filed under Rattus norvegicus [1] was Active. The outcome in the data set listed under Rattus norvegicus [2] was inactive.
Turning to `NCC(O)C1CCCCC1` (stereo not given), the result in the data set filed under Rattus norvegicus [1] and with Vas deferens was Active. Besides, the result in the data set listed under Rattus norvegicus [2] was inactive.
In the case of `C[C@@H](N)[C@@H](O)c1ccccc1`, the outcome in the data set filed under Rattus norvegicus [1] and in the data set on Vas deferens was Active. The outcome in the data set listed under Rattus norvegicus [2] was inactive.
In the case of `NCC(O)C1CC=CCC1` (stereo not given), the result in the data set listed under Rattus norvegicus [1] and in the data set with Vas deferens was Active. In addition, in the data set filed under Rattus norvegicus [2], the result was inactive.
For the molecule `NCC(O)C1=C/CCCC/C=C\1` (stereo not given), the result in the data set listed under Rattus norvegicus [1] and in the data set on Vas deferens was Active. In addition, the result in the data set filed under Rattus norvegicus [2] was inactive.
Regarding `NCC(O)C1CCCCCCC1` (stereo not given), the outcome in the data set listed under Rattus norvegicus [1] and in the data set with Vas deferens was Active. Besides, in the data set listed under Rattus norvegicus [2], the outcome was inactive.
For the molecule `NCC(O)c1ccccc1` (stereo not given), the result in the data set listed under Rattus norvegicus [1] and in the data set with Vas deferens was Active. Also, in the data set listed under Rattus norvegicus [2], the outcome was inactive.

B1: Phenylethanolamine N-methyltransferase (Bos taurus), P10938 (protein)
chain: MSGTDRSQAAGAVPDSDPGLAAVSSAYQRFEPRAYLRNNYAPPRGDLSCPDGVGPWKLRCLAQTFATGEVSGRTLIDIGSGPTIYQLLSACAHFEDITMTDFLEVNRQELRLWLREEPGAFDWSVYSQHVCLIEGKGESWQEKECQLRARVKRILPIDVHRPQPLGAGGLAPLPADALVSAFCLEAVSPDLASFQRALDHITTLLRPGGHLLLIGALEESWYLAGEARLAVVPVREEEVREALVRTATRCGICARTPMPAHLQTGVDDVKGIFFTRAQKKVGV
By Km is commonly meant the substrate concentration at which the rate is half of its maximum. By Vmax is commonly meant the rate approached at saturating substrate. On to B1, for which the Michaelis constant (Km) in data set [3] turned out to be 155 µM; in [4] it was 430 µM; in [5], 128 µM; in data set [6] it was 57 µM; in [7], 40 µM; in [8], 26 µM. Further, the Km in data set [9] was 136 µM. For the same molecule, the Vmax in data set [10] was 2.75 nmol/min; in [11], 1.73 nmol/min; in data set [12] it was 2.61 nmol/min; in data set [13], 1.37 nmol/min; in [14] it was 0.99 nmol/min; in data set [15], 0.96 nmol/min. In addition, the maximum rate (Vmax) in data set [16] was determined as 2.1 nmol/min.

Source of the values: ChEMBL document CHEMBL3272206, “Importance of the aromatic ring in adrenergic amines. 2. Synthesis and adrenergic activity of some nonaromatic six- and eight-membered ring analogs of beta-phenylethanolamine” (J Med Chem, 1976).
